Where “and” joins values, the source holds several entries; their conditions need not be identical. Identical values can stand only once. Like-named read-outs stand apart in the source and are kept apart here.

The source of these data is patent publication US5298626A, “Select cyclopent[b]indoles” (priority 1992, dated 1994).

In one experiment the target is α2-receptor. The experiment in a line: 3H-Clonidine Binding: α2-Receptor. The conditions noted are these: 3 nM 3H-clonidine, rat cortical tissue, pH 7.7. Also noted: species or system rat (male Wistar). As for the experimental part: See references 1, 2 and 3 cited below. The interaction of a compound with central α2 -receptors is assessed in the ^3 H-clonidine binding assay.
2. Tris buffer containing physiological ions
3. [4-^3 H]-Clonidine hydrochloride (20-30 Ci/mmol) is obtained from New England Nuclear.
4. Clonidine-HCl is obtained from Boehringer Ingelheim. A stock solution of 0.1 mM clonidine is made up to determine nonspecific binding. This yields a final concentration of 1 μM in the assay (20 μl to 2 ml).
Male Wistar rats are sacrificed by decapitation and the cortical tissue rapidly dissected. The tissue is homogenized in 50 volumes of 0.05M Tris buffer, pH 7.7 (buffer 1b) with the Brinkman Polytron, then centrifuged at 40,000 g for 15 minutes. The supernatant is discarded and the pellet re-homogenized in the original volume of 0.05M Tris buffer, pH 7.7 and re-centrifuged as before. The supernate is discarded and the final pellet re-homogenized in 50 volumes of buffer 2b. This tissue suspension is then stored on ice. The final tissue concentration is […]. Specific binding is 1% of the total added ligand and 80% of total bound ligand.
100 μl--0.5M Tris-physiological salts, pH 7.7 (buffer 2a)
20 μl--Vehicle (for total binding) or 0. 1 mM clonidine (for nonspecific binding) or appropriate drug concentration
50 μl--^3 H-clonidine stock
1000 μl tissue suspension
Tissue homogenates are incubated for 20 minutes at […] with 3 nM 3 H-clonidine and varying drug concentrations, and thereafter immediately filtered under reduced pressure on Whatman GF/B filters. The filters are washed with three five ml volumes of ice-cold 0.05M Tris buffer, pH 7.7, and thereafter transferred to scintillation vials. Ten ml of Liquiscint counting solution is added to each sample which is then counted by liquid scintillation spectroscopy. Specific clonidine binding is defined as the difference between total bound and […]. The percent inhibition at each drug concentration is the mean of triplicate determinations.

Another experiment has as its target T1, MAO-B (Rattus norvegicus, UniProt P19643).
T1 construct: served as the tissue source for mitochondrial MAO; from tissue; host or cells: whole brain minus cerebellum of male Wistar rats, P2 pellet (18,000 g)
T1 sequence (P19643 1-520): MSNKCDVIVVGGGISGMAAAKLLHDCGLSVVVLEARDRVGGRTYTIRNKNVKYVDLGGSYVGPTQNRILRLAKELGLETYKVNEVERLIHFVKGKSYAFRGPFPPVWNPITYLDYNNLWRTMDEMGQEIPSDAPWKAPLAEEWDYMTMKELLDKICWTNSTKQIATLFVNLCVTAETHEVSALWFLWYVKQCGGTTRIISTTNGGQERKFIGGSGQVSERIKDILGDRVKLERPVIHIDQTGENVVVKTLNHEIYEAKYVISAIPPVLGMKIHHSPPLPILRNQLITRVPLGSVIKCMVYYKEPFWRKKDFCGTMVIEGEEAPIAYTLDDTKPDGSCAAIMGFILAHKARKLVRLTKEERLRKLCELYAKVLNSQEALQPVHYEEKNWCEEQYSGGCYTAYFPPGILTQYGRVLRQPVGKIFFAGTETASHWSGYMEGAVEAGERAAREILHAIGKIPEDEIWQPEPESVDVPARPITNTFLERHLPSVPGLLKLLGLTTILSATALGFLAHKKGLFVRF
Description: biochemical. Also noted: species or system rat (male Wistar).

The next experiment deals with T2, MAO-A (Rattus norvegicus, UniProt P21396).
T2 construct: served as the tissue source for mitochondrial MAO; from tissue; host or cells: whole brain minus cerebellum of male Wistar rats, P2 pellet (18,000 g)
T2 sequence (P21396 1-526): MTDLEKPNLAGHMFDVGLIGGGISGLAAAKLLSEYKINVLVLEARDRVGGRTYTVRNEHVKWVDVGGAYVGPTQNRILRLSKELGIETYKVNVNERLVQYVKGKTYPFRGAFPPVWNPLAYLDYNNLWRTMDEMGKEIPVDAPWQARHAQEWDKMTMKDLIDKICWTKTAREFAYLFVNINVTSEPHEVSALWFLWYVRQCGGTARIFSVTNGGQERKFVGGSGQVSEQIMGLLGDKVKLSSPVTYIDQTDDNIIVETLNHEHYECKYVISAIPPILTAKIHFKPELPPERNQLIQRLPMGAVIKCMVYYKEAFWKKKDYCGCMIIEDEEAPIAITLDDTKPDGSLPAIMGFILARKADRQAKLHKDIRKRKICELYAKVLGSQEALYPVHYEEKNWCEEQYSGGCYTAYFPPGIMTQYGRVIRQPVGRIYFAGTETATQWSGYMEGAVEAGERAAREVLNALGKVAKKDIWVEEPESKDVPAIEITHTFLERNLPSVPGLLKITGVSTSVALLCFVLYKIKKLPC
The experiment in a line: biochemical. Also noted: species or system rat (male Wistar).

Experiment [1] has as its system Scopolamine Induced Memory Deficit. The experiment is classed as in vivo, mice. The method, then: In this assay mice are tested for their ability to remember an unpleasant stimulus for a period of 24 hours. A mouse is placed in a chamber that contains a dark compartment; a strong incandescent light drives it to the dark compartment, where an electric shock is administered through metal plates on the floor. The animal is removed from the testing apparatus and tested again, 24 hours later, for the ability to remember the electric shock.
If scopolamine, an anticholinergic that is known to cause memory impairment, is administered before an animal's initial exposure to the test chamber, the animal re-enters the dark compartment shortly after being placed in the test chamber 24 hours later. This effect of scopolamine is blocked by an active test compound, resulting in a greater interval before re-entry into the dark compartment.
The results for an active compound are expressed as the percent of a group of animals in which the effect of scopolamine is blocked, as manifested by an increased interval between being placed in the test chamber and re-entering the dark compartment.

In experiment [2] the target is T3, Brain AChE (acetylcholinesterase) (Rattus norvegicus, UniProt P37136).
T3 construct: corpora striata dissected free, weighed and homogenized in 19 volumes; from tissue; host or cells: corpora striata of male Wistar rats, whole homogenate
T3 sequence (P37136 32-614): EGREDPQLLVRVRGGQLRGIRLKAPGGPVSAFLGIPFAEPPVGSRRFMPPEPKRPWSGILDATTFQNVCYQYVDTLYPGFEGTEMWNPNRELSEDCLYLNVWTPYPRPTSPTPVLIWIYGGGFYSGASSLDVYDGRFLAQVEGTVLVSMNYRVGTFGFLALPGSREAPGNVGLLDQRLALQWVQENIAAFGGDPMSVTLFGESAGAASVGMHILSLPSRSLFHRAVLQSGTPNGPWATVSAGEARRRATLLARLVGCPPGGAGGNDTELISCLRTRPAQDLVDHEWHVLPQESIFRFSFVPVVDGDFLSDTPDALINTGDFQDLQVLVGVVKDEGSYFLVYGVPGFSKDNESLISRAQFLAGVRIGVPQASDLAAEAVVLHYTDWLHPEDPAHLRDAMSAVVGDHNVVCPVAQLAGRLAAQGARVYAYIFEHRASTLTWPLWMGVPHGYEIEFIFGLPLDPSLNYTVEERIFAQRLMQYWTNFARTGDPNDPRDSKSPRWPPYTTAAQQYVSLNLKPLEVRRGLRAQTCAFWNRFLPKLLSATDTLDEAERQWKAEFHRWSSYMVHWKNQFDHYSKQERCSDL
Description: biochemical. More on the design: species or system rat (male Wistar). As to conditions: rat striatum, read-out: Inhibitory Concentration, IC50. As for the experimental part: Cholinesterases are found throughout the body, both in the brain and in serum.
In Vitro Inhibition of Acetylcholinesterase Activity in Rat Striatum
The method described below was used in this invention for assaying cholinesterase activity. This is a modification of the method of Ellman et al., Biochem. Pharmacol. 7, 88 (1961).
1. 0.05M Phosphate buffer, pH 7.2
4. A 2 mM stock solution of the test drug is made up in a suitable solvent and q.s. to volume with 0.5 mM DTNB (reagent 3). […] If active, IC50 values are determined from the inhibitory activity of subsequent concentrations.
Male Wistar rats are decapitated, brains rapidly removed, corpora striata dissected free, weighed and homogenized in 19 volumes (approximately 7 mg protein/ml) of 0.05M phosphate buffer, pH 7.2 using a Potter-Elvehjem homogenizer.
Enzyme activity is measured with the Beckman DU-50 spectrophotometer. This method can be used for IC50 determinations and for measuring kinetic constants.
Blank values are determined for each run to control for non-enzymatic hydrolysis of substrate and these values are automatically subtracted by the kindata program available on kinetics soft-pac module. This program also calculates the rate of absorbance change for each cuvette.
Substrate concentration is 10 mM diluted 1:2 in assay yielding final concentration of 5 mM. […] IC50 values are calculated from log-probit analysis

Experiment [3] relates to monoamine oxidase type A and type B. As to conditions: literature, reference (2); cited from earlier work.

Description for MAO-A: Inhibition of Type A and Type B Monoamine Oxidase
Activity in Rat Brain Synaptosomes
(§1) To determine the selective inhibition of the two forms of monoamine oxidase (MAO).
Although various methods for measuring MAO activity are available, the described method involves the extraction of the radiolabeled deaminated metabolites of [^3 H]-5HT or [^14 C]-β-phenethylamine.
a. Serotonin creatine SO4 (5HT) is obtained from Sigma Chemical Company. A 5 mM stock solution is made up in 0.01N HCl. This is used to dilute the specific activity of the [^3 H]-5HT. b. [^3 H]-5-Hydroxytryptamine binoxalate (20-30 Ci/mmol) is obtained from New England Nuclear. c. Add 12 μl of [^3 H]-5HT to 2 ml of the 5 mM 5HT solution. (Final amine concentration in the assay is 200 μM: see below.)
5. Equal amounts of MAO-A (5HT) and MAO-B (PEA) substrates are combined for simultaneously testing both MAO types, i.e. mixed stock solution of 2.5 mM 5HT and 2.5 mM PEA, 40 μl of this mixed solution gives a 200 μM final concentration of each amine in the assay. When testing only one MAO type, the individual 5 mM stock solutions must be diluted 1: 1 with distilled water prior to adding 40 μl to the incubation mixture; i.e., same 200 μM final amine concentration.
(§2) Male Wistar rats weighting 15-250 grams were sacrificed an removed. Whole brain minus cerebellum was homogenized in 30 volumes of ice-cold, phosphate-buffered 0.25M sucrose, using a Potter-Elvejhem homogenizer. The homogenate as centrifuged at 1000 g for 10 minutes and the supernatant (S1) decanted and recentifuged at 18,000 g for 20 minutes. […]
(§3) Tubes are preincubated for 15 minutes at 37° C. and the assay is started by adding 40 μl of combined substrate ([^3 H]-5HT and [^14 C]-PEA) at 15 second intervals. […] Tissue blank values are determined by adding the acid before the radioactive substrate. […] 10 ml of Liquiscint is added and the samples are counted using window settings for in ^14 C in one channel and ^3 H in the second channel. IC50 values are determined by log-probit analysis.
Description for MAO-B: Activity in Rat Brain Synaptosomes
as §1
Although various methods for measuring MAO activity are available, the described method involves the extraction of the radiolabeled deaminated metabolites of [^3 H]-5HT or [^14 C]-β-phenethylamine. This procedure allows MAO-A and MAO-B activities to be measured either simultaneously or individually (3).
A 5 mM stock solution is made up in 0.01N HCl. This is used to dilute the specific activity of the [^14 C]-PEA. b. β-[ethyl-1-^14 C]-phenethylaminehydrochloride(40-50 mCi/mmol) is obtained from New England Nuclear. c. Add 12 μl of [^14 C]-PEA to 2 ml of the 5 mM PEA solution. (Final amine concentration in the assay is 200 μM: see below.)
Equal amounts of MAO-A (5HT) and MAO-B (PEA) substrates are combined for simultaneously testing both MAO types, i.e. mixed stock solution of 2.5 mM 5HT and 2.5 mM PEA, 40 μl of this mixed solution gives a 200 μM final concentration of each amine in the assay. When testing only one MAO type, the individual 5 mM stock solutions must be diluted 1: 1 with distilled water prior to adding 40 μl to the incubation mixture; i.e., same 200 μM final amine concentration.
as §2, §3

As for `NC1CCC2c3ccccc3NC12` (stereo not shown) [1,2,3,3a,4,8b-Hexahydrocyclopent[b]indol-3-amine 2-naphthalene sulfonate hemihydrate], at α2-receptor, the IC50 turned out to be 1270 nM.

Consider `C#CCNC1CCc2c1[nH]c1ccccc21` (stereo not shown) [1,2,3,4-Tetrahydrocyclopent[b]indol-3-(2-propynyl)amine], for which the IC50 on MAO-B (substrate [14C]-PEA, 200 μM, read-out: Inhibitory Concentration - IC50, MAO-B) was determined as 320 nM; at MAO-A (substrate [3H]-5HT, 200 μM, read-out: Inhibitory Concentration - IC50, MAO-A), 290 nM.

On to `CNC(=O)Oc1ccc2c(c1)c1c(n2C)C(NC2CC2)CC1` (stereo not shown) [3-(N-Cyclopropyl)amino-4-methyl-1,2,3,4-tetrahydrocyclopent[b]indol-7-yl methylcarbamate], for which the “% of Animals with Scopolamine Induced Memory Deficit Reversal” value (“% of Animals” below) came to 27% in experiment [1] (0.63 mg/kg of body weight, s.c., retest at 24 hours) and 33% in experiment [1] (2.5 mg/kg of body weight, s.c., retest at 24 hours). For the same molecule, the IC50 against MAO-B turned out to be 420 nM; against MAO-A, 320 nM; in experiment [2], 3500 nM.

As to `CNC(=O)Oc1ccc2c(c1)c1c(n2C)C(=NC2CC2c2ccccc2)CC1` (stereo not shown) [4-Methyl-3-[(2-phenylcyclopropyl)imino]-1,2,3,4-tetrahydrocyclopent[b]indol-7-yl methylcarbamate], the IC50 against MAO-B is 3700 nM; against MAO-A, 15200 nM.

Turning to `Cn1c2c(c3ccccc31)CCC2N` (stereo not shown) [4-methyl-1,2,3,4-tetrahydrocyclopent[b]indol-3-amine], on α2-receptor, the IC50 is 1490 nM.

As for `CNC(=O)Oc1ccc2c(c1)c1c(n2C)C(NCc2ccccc2)CC1` (stereo not shown) [4-methyl-3-phenylmethylamino-1,2,3,4-tetrahydrocyclopent[b]indol-7-yl methylcarbamate], the IC50 in experiment [2] is 1100 nM and 6200 nM.

`Cn1c2c(c3cc(O)ccc31)CCC2=NCc1ccccc1` [4-methyl-3-phenylmethylimino-1,2,3,4-tetrahydrocyclopent[b]indol-7-ol]: the IC50 at α2-receptor was found to be 850 nM.

On α2-receptor, `CN(C)CCC=C1c2ccccc2CCc2ccccc21` [Amitriptyline, reference compound] returned an IC50 of 3900 nM.

Turning to `C#CCN(C)CCCOc1ccc(Cl)cc1Cl` [Clorgyline], the “selectivity for type A / type B monoamine oxidase” value in experiment [3] is given as “selective inhibitor of the type A enzyme”.

With `CC[C@@H]1C(=O)OC[C@@H]1Cc1cncn1C` [Pilocarpine, reference compound], in experiment [1] (5.0 mg/kg of body weight, s.c., retest at 24 hours), the “% of Animals” value amounted to 13%.

On to `Nc1c2c(nc3ccccc13)CCCC2` [Tacrine, reference compound], for which, in experiment [1] (mouse, in vivo), the “% of Animals” value was found to be 13%.

As for `CC(C)NNC(=O)c1ccncc1` [iproniazid], the “selectivity for type A / type B monoamine oxidase” value in experiment [3] was “nonselective inhibitors”.

`C#CCN(C)Cc1ccccc1` [pargyline]: in experiment [3], the “selectivity for type A / type B monoamine oxidase” value is on record as “selective inhibitors of the type B enzyme”.
